Measured values taken from patent publication US20100267561A1, “HERBICIDAL PYRIDAZINONE DERIVATIVES” (priority 2007, published 2010).
Where two headings read alike, the source gives them in different places.

Key:
Test in all cases: Test B pre-/postemergence plant response
Format in all cases: in vivo
[1] = tested on: catchweed bedstraw (Galium aparine); details: Preemergence
Outline: (§1)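 Visual scoring from 0 (no effect) to 100 (complete control) against untreated controls was done 13 to 15 days after greenhouse treatment. Chemicals were formulated in a surfactant-containing non-phytotoxic solvent and applied to soil preemergence or to 1- to 4-leaf (2-18 cm) plants postemergence.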

[2] = tested on: lambsquarters (Chenopodium album); details: for Lambsquarters plant response rating: 8 g ai/ha; for pest or weed control at 16 g/ha / pest or weed control at 31 g/ha / pest or weed control at 62 g/ha: Chenopodium album, read-out: Plant response rating, Lambsquarters; for pest or weed control at 16 g/ha: 16 g ai/ha; for pest or weed control at 31 g/ha: 31 g ai/ha; for pest or weed control at 62 g/ha: 62 g ai/ha
Outline: as §1

[3] = tested on: eastern black (E.B.) nightshade (Solanum ptycanthum); details: Preemergence
Outline: as §1

[4] = tested on: Russian thistle (Salsola iberica); details: Preemergence
Outline: as §1

[5] = tested on: surinam grass (Brachiaria decumbens); details: for Surinam Grass plant response rating: 8 g ai/ha; for pest or weed control at 16 g/ha: 16 g ai/ha; for pest or weed control at 62 g/ha: 62 g ai/ha
Outline: as §1

wild oat (Avena fatua) = details: for pest or weed control at 16 g/ha / pest or weed control at 31 g/ha / pest or weed control at 62 g/ha: Avena fatua, read-out: Plant response rating, Oat, Wild; for pest or weed control at 16 g/ha: 16 g ai/ha; for pest or weed control at 31 g/ha: 31 g ai/ha; for pest or weed control at 62 g/ha: 62 g ai/ha
Outline: as §1

[6] = tested on: morningglory (Ipomoea coccinea); details: for Morningglory plant response rating: 8 g ai/ha; for pest or weed control at 16 g/ha / pest or weed control at 31 g/ha / pest or weed control at 62 g/ha: Ipomoea, read-out: Plant response rating, Morningglory; for pest or weed control at 16 g/ha: 16 g ai/ha; for pest or weed control at 31 g/ha: 31 g ai/ha; for pest or weed control at 62 g/ha: 62 g ai/ha
Outline: as §1

[7] = tested on: yellow nutsedge (Cyperus esculentus); details: for pest or weed control at 16 g/ha: 16 g ai/ha
Outline: as §1

[8] = post-emergence, Postemergence, scale 0 to 100
[9] = post-emergence, Postemergence, scale 0 to 100, 0 no effect, 100 complete control
[10] = pre-emergence, Preemergence, scale 0 to 100 (0 no effect, 100 complete control)
[11] = pre-emergence, Preemergence, 0 to 100 scale, 0 no effect, 100 complete control
[12] = pre-emergence, Preemergence, scale 0 to 100
[13] = 8 g ai/ha, postemergence, 0-100 scale

## CCc1c(C)c(-c2ccc(Cl)cc2)nn1-c1c(O)cnn(C)c1=O [Compound 26, 4-[3-(4-chlorophenyl)-5-ethyl-4-methyl-1H-pyrazol-1-yl]-5-hydroxy-2-methyl-3(2H)-pyridazinone]
[1]; Galium aparine, pre-emergence, 16 g ai/ha, scale 0 to 100 (0 no effect, 100 complete control), read-out: Plant response rating, Galium
  pest or weed control at 16 g/ha: 0%
[1]; Galium aparine, pre-emergence, 31 g ai/ha, 0 to 100 scale, 0 no effect, 100 complete control, read-out: Plant response rating, Galium
  pest or weed control at 31 g/ha: 0%
[1]; Galium aparine, pre-emergence, 62 g ai/ha, scale 0 to 100, read-out: Plant response rating, Galium
  pest or weed control at 62 g/ha: 0%
[1]; 8 g ai/ha, scale 0 to 100
  Galium plant response rating: 0
[2]; postemergence, 0-100 scale
  Lambsquarters plant response rating: 0
[2]; [8]
  pest or weed control at 16 g/ha: 0%
[2]; [9]
  pest or weed control at 31 g/ha: 0%
  pest or weed control at 62 g/ha: 0%
[2]; [10]
  pest or weed control at 16 g/ha: 0%
[2]; [11]
  pest or weed control at 31 g/ha: 0%
[2]; [12]
  pest or weed control at 62 g/ha: 0%
[2]; Preemergence, scale 0 to 100
  Lambsquarters plant response rating: 0
[3]; 8 g ai/ha, scale 0 to 100
  Nightshade, E. B. plant response rating: 0
[3]; Solanum, pre-emergence, 16 g ai/ha, scale 0 to 100 (0 no effect, 100 complete control), read-out: Plant response rating, Nightshade, E. B.
  pest or weed control at 16 g/ha: 0%
[3]; Solanum, pre-emergence, 31 g ai/ha, 0 to 100 scale, 0 no effect, 100 complete control, read-out: Plant response rating, Nightshade, E. B.
  pest or weed control at 31 g/ha: 0%
[3]; Solanum, pre-emergence, 62 g ai/ha, scale 0 to 100, read-out: Plant response rating, Nightshade, E. B.
  pest or weed control at 62 g/ha: 0%
[4]; 16 g ai/ha, scale 0 to 100 (0 no effect, 100 complete control)
  Plant response rating, Russian Thistle: 0
[4]; 31 g ai/ha, 0 to 100 scale, 0 no effect, 100 complete control
  Plant response rating, Russian Thistle: 0
[4]; 62 g ai/ha, scale 0 to 100
  Plant response rating, Russian Thistle: 0
[4]; 8 g ai/ha, scale 0 to 100
  Russian Thistle plant response rating: 0
[5]; postemergence, 0-100 scale
  Surinam Grass plant response rating: 85
[5]; Preemergence, scale 0 to 100
  Surinam Grass plant response rating: 75
[5]; Urochloa decumbens, post-emergence, Postemergence, scale 0 to 100, read-out: Plant response rating, Surinam Grass
  pest or weed control at 16 g/ha: 85%
[5]; Urochloa decumbens, post-emergence, Postemergence, scale 0 to 100, 0 no effect, 100 complete control, read-out: Plant response rating, Surinam Grass
  pest or weed control at 62 g/ha: 100%
[5]; Urochloa decumbens, pre-emergence, Preemergence, scale 0 to 100 (0 no effect, 100 complete control), read-out: Plant response rating, Surinam Grass
  pest or weed control at 16 g/ha: 85%
[5]; Urochloa decumbens, pre-emergence, Preemergence, 31 g ai/ha, 0 to 100 scale, 0 no effect, 100 complete control, read-out: Plant response rating, Surinam Grass
  pest or weed control at 31 g/ha: 100%
[5]; Urochloa decumbens, pre-emergence, Preemergence, scale 0 to 100, read-out: Plant response rating, Surinam Grass
  pest or weed control at 62 g/ha: 100%
Wild oat (Avena fatua); [13]
  Oat, Wild plant response rating: 85
Wild oat (Avena fatua); [8]
  pest or weed control at 16 g/ha: 90%
Wild oat (Avena fatua); [9]
  pest or weed control at 31 g/ha: 90%
  pest or weed control at 62 g/ha: 100%
Wild oat (Avena fatua); [10]
  pest or weed control at 16 g/ha: 80%
Wild oat (Avena fatua); [11]
  pest or weed control at 31 g/ha: 85%
Wild oat (Avena fatua); [12]
  pest or weed control at 62 g/ha: 85%
[6]; postemergence, 0-100 scale
  Morningglory plant response rating: 0
[6]; [8]
  pest or weed control at 16 g/ha: 0%
[6]; [9]
  pest or weed control at 31 g/ha: 0%
  pest or weed control at 62 g/ha: 0%
[6]; [10]
  pest or weed control at 16 g/ha: 0%
[6]; [11]
  pest or weed control at 31 g/ha: 0%
[6]; [12]
  pest or weed control at 62 g/ha: 0%
[6]; Preemergence, scale 0 to 100
  Morningglory plant response rating: 0
[7]; [13]
  Nutsedge, Yellow plant response rating: 0
[7]; Cyperus, post-emergence, Postemergence, scale 0 to 100, read-out: Plant response rating, Nutsedge, Yellow
  pest or weed control at 16 g/ha: 0%
[7]; Cyperus, post-emergence, Postemergence, 31 g ai/ha, scale 0 to 100, 0 no effect, 100 complete control, read-out: Plant response rating, Nutsedge, Yellow
  pest or weed control at 31 g/ha: 0%
[7]; Cyperus, post-emergence, Postemergence, 62 g ai/ha, scale 0 to 100, 0 no effect, 100 complete control, read-out: Plant response rating, Nutsedge, Yellow
  pest or weed control at 62 g/ha: 0%
[7]; Cyperus, pre-emergence, Preemergence, scale 0 to 100 (0 no effect, 100 complete control), read-out: Plant response rating, Nutsedge, Yellow
  pest or weed control at 16 g/ha: 0%
